Test results published in ChEMBL document CHEMBL1139672, “1,2,3,4-Tetrahydroisoquinolinyl sulfamic acids as phosphatase PTP1B inhibitors” (Bioorg Med Chem Lett, 2006).

Legend:
[1] = target: Receptor-type tyrosine-protein phosphatase beta (Homo sapiens, UniProt P23467); experiment: Inhibition of HPTP beta
[2] = target: Receptor-type tyrosine-protein phosphatase F (Homo sapiens, UniProt P10586); experiment: Inhibition of LAR
[3] = target: T1, Receptor-type tyrosine-protein phosphatase C (Homo sapiens, UniProt P08575); experiment: Inhibition of CD45
T1 sequence (P08575 whole entry): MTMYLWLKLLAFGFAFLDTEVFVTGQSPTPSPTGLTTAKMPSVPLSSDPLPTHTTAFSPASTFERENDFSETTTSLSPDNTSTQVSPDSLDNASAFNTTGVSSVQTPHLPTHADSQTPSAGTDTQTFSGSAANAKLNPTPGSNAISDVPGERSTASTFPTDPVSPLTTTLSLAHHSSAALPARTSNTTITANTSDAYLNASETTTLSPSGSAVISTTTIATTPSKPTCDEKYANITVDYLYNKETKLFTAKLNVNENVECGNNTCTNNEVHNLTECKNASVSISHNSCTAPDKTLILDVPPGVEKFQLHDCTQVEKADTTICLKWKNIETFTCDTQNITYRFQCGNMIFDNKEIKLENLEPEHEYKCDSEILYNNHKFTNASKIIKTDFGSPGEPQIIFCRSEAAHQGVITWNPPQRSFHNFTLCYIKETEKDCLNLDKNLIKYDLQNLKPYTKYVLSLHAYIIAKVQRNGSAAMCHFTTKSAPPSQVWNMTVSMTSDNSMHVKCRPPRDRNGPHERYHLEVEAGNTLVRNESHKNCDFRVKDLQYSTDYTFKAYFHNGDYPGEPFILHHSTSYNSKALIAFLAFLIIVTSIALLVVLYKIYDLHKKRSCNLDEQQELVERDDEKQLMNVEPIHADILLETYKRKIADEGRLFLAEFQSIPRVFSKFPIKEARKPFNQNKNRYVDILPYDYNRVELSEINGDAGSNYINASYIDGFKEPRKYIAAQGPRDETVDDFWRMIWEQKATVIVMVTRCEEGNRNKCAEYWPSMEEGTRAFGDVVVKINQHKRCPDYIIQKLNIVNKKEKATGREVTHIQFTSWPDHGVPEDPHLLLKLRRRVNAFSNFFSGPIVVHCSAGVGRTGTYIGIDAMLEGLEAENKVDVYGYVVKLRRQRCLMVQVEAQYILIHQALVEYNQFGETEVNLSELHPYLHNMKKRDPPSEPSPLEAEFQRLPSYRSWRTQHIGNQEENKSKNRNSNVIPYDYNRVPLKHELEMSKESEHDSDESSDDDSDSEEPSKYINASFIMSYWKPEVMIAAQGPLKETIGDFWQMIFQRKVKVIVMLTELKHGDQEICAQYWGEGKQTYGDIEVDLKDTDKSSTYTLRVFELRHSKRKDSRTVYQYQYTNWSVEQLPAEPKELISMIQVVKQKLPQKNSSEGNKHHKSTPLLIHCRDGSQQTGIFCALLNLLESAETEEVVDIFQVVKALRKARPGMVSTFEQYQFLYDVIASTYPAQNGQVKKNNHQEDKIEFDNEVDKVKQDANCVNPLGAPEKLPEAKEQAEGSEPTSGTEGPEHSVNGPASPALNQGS

[4] = Inhibition of STP1
[5] = target: Dual specificity protein phosphatase 3 (Homo sapiens, UniProt P51452); experiment: Inhibition of VHR
[6] = target: Receptor-type tyrosine-protein phosphatase mu (Homo sapiens, UniProt P28827); experiment: Inhibition of HPTP mu
[7] = target: Tyrosine-protein phosphatase non-receptor type 6 (Homo sapiens, UniProt P29350); experiment: Inhibition of SHP1
[8] = target: T2, Receptor-type tyrosine-protein phosphatase eta (Homo sapiens, UniProt Q12913); experiment: Inhibition of HPTP eta
T2 sequence (Q12913 whole entry): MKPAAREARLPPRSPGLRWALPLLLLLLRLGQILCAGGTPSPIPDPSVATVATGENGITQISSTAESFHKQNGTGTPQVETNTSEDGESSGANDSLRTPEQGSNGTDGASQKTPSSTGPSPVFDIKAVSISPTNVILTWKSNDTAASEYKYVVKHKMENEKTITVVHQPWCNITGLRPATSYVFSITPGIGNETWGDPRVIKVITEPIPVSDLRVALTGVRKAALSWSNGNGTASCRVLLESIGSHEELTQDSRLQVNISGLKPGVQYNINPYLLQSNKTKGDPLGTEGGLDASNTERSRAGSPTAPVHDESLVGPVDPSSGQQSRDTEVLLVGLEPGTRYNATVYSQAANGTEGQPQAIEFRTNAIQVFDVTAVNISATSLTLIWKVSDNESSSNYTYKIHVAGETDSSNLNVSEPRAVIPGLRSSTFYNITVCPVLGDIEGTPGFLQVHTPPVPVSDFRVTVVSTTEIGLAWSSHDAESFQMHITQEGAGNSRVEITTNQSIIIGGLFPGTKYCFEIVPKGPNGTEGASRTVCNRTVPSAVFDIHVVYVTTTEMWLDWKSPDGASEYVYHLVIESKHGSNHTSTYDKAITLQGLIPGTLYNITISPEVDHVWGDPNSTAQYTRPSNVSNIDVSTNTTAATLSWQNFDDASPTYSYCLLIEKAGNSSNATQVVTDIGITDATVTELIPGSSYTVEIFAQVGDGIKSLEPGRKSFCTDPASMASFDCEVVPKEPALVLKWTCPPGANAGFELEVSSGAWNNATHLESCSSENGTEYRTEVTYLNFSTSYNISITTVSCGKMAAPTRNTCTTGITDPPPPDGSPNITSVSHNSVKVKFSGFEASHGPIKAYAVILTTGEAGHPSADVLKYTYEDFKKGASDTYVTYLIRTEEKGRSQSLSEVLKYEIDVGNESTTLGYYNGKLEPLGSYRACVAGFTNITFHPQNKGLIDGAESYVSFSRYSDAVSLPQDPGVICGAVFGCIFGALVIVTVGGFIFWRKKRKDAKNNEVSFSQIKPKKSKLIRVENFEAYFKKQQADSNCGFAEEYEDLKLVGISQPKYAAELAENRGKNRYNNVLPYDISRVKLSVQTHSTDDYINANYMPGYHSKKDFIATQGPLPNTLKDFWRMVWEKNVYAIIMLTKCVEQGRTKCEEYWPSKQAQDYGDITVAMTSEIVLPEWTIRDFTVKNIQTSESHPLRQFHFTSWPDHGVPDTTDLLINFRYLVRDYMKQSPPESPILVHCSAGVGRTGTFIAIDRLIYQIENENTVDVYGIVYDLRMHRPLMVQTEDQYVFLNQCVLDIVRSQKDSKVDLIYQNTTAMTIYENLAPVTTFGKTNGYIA

[9] = target: Receptor-type tyrosine-protein phosphatase gamma (Homo sapiens, UniProt P23470); experiment: Inhibition of PTP gamma
[10] = target: Receptor-type tyrosine-protein phosphatase epsilon (Homo sapiens, UniProt P23469); experiment: Inhibition of HPTP epsilon
Receptor-type tyrosine-protein phosphatase epsilon, sequence (P23469 whole entry): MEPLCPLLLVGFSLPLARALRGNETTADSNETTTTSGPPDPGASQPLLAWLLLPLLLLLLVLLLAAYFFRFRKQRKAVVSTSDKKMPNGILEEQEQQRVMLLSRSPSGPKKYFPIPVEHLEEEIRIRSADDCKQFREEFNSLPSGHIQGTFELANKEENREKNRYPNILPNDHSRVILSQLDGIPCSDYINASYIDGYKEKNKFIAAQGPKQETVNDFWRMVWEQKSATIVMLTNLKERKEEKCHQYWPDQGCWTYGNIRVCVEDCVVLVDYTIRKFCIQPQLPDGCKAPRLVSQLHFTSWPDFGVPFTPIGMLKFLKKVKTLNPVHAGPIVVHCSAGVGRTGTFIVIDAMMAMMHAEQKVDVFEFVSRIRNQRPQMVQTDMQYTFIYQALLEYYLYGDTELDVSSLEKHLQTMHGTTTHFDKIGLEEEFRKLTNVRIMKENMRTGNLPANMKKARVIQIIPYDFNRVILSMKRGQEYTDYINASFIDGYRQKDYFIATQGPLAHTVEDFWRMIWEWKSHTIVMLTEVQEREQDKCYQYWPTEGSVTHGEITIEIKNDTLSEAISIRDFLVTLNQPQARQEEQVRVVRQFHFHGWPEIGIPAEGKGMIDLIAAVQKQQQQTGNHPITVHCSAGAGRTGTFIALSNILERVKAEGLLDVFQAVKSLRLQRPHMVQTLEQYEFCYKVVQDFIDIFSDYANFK

Receptor-type tyrosine-protein phosphatase gamma, sequence (P23470 whole entry): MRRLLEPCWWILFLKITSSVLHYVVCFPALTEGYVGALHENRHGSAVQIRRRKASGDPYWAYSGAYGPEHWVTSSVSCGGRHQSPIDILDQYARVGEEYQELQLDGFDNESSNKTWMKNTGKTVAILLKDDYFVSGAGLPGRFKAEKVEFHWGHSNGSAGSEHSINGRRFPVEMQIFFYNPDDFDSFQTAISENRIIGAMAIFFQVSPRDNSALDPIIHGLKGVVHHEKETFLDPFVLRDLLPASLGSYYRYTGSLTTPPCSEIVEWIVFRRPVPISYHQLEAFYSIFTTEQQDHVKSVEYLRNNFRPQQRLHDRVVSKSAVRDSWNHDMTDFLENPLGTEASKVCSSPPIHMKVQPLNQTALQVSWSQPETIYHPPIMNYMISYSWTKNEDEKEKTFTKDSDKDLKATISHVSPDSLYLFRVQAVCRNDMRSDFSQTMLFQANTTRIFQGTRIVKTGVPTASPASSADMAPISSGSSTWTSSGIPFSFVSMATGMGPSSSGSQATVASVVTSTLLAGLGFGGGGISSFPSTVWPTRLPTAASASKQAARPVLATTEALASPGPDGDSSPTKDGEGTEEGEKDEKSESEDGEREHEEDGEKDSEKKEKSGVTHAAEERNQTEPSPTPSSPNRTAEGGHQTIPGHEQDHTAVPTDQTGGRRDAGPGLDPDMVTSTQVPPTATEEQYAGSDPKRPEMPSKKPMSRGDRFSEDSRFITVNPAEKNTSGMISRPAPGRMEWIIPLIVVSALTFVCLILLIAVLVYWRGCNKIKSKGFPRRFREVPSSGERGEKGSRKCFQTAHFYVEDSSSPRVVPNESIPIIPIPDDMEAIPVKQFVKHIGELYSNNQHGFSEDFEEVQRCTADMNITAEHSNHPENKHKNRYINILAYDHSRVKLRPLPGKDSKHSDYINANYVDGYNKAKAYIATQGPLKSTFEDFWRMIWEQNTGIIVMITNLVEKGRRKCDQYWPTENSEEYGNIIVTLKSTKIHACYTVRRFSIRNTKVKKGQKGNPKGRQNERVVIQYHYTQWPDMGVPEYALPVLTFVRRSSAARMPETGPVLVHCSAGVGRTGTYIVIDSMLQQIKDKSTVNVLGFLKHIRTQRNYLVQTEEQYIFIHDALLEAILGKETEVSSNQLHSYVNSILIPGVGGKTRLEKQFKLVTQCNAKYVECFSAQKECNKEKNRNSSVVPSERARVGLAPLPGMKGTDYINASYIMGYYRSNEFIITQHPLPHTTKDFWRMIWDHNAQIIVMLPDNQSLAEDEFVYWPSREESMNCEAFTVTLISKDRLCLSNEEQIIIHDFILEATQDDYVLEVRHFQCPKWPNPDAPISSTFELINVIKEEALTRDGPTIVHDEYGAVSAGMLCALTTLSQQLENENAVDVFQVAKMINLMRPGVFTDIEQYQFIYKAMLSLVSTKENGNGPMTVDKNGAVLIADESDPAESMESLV
Dual specificity protein phosphatase 3, sequence (P51452 whole entry): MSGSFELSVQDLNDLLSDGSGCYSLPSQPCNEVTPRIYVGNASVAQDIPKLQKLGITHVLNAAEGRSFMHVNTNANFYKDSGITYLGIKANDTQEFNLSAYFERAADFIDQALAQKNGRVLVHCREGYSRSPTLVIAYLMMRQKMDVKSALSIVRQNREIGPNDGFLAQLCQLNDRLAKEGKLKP
Receptor-type tyrosine-protein phosphatase beta, sequence (P23467 whole entry): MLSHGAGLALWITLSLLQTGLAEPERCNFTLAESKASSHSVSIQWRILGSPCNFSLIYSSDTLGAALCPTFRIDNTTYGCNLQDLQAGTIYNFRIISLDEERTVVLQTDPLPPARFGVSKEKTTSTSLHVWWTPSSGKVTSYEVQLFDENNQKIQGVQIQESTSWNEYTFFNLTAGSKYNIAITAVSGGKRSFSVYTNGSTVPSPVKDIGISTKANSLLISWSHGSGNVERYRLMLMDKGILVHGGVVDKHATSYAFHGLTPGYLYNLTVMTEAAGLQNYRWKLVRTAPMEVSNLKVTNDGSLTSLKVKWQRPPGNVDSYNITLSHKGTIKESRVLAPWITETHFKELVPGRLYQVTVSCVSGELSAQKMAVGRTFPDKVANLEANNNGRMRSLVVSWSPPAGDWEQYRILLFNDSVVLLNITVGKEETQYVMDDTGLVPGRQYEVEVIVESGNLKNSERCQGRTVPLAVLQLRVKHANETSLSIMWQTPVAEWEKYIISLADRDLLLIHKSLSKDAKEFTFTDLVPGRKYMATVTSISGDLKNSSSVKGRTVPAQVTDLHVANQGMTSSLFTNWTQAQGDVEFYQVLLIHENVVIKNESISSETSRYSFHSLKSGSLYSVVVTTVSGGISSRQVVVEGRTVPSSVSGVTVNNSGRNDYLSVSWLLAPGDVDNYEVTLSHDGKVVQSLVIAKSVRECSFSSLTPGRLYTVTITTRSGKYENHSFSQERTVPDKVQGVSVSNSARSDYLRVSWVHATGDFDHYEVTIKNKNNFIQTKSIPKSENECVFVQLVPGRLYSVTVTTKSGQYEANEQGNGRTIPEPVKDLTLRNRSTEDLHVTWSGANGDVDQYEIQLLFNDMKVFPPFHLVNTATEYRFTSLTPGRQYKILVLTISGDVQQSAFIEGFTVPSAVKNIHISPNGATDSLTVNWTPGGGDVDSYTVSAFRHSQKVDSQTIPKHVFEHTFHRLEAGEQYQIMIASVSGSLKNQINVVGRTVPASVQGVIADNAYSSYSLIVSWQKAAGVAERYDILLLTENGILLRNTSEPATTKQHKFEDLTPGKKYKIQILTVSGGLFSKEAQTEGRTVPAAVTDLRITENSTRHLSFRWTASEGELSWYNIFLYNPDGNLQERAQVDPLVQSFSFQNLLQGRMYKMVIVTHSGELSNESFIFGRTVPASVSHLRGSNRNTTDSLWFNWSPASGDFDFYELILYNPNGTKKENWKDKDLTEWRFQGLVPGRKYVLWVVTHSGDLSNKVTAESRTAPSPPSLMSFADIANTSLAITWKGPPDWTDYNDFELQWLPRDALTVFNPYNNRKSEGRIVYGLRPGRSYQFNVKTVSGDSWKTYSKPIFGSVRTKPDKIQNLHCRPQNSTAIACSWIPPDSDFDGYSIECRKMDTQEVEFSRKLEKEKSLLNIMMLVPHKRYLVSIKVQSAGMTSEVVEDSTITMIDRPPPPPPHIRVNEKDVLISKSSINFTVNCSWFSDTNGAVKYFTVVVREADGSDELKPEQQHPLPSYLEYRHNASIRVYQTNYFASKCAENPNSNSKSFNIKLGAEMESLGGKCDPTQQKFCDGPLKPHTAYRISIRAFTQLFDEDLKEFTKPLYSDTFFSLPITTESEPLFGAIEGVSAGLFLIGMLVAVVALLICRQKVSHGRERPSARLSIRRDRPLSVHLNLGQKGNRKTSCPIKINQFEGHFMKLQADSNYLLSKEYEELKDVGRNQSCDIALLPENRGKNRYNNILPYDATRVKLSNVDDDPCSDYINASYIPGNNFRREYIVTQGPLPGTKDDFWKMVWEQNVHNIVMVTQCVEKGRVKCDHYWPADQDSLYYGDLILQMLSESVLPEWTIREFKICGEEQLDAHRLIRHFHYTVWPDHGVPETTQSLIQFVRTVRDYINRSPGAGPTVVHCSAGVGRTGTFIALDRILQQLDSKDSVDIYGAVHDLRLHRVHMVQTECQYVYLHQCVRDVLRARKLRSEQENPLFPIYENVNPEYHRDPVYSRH
Tyrosine-protein phosphatase non-receptor type 6, sequence (P29350 whole entry): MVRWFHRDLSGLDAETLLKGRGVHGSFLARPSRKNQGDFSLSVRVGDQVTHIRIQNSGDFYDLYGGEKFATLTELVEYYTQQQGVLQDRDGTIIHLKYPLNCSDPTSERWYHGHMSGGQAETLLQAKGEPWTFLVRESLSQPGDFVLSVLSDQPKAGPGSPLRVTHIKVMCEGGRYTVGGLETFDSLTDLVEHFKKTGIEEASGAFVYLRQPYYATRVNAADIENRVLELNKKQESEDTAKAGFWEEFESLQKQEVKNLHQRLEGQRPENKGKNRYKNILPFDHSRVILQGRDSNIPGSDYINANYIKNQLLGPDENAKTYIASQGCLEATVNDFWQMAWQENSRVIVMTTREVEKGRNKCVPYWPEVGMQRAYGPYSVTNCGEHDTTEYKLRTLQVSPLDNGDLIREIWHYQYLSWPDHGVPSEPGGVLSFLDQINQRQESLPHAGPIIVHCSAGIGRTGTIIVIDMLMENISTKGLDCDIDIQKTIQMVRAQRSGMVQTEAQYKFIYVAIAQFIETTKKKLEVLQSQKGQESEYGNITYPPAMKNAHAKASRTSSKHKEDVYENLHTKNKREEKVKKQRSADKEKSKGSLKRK

- IC50 [1]: 20.7 µM
- IC50 [2]: > 500 µM
- IC50 [3]: > 500 µM
- IC50 [4]: 8.1 µM
- IC50 [5]: 4 µM
- IC50 [6]: > 500 µM
- IC50 [7]: 203 µM
- IC50 [8]: 150 µM
- IC50 [9]: > 500 µM
- IC50 [10]: > 500 µM
Compound: CNC(=O)[C@@H]1Cc2ccc(NS(=O)(=O)O)cc2CN1C(=O)CCc1cccc(NS(=O)(=O)O)c1
